Values of other authors as cited in patent publication US20050255076A1, “Therapeutic cream for dermatitis” (priority 2004, published 2005).

Settings: in alcohol and in water

## C[S+](C)[O-] [Dimethyl sulfoxide]
  Properties: solubility: Soluble in alcohol and water
